Experimental data as given in patent US20240343704A1, “HALO-SUBSTITUTED AMINO PYRIDINE COMPOUNDS AS INHIBITORS OF THE HAEMATOPOIETIC PROGENITOR KINASE 1 (HPK1)” (priority 2021, published 2024).

Columns and labels:
[1] = target: T1, Recombinant (1-346) HPK1 (h) (Homo sapiens, UniProt Q92918); assay: HPK1 Human STE Kinase Enzymatic Radiometric Assay; assay type: biochemical; settings: read-out: HPK1 IC50 nM Range*
T1 construct: Recombinant (1-346) HPK1 (h) is incubated with 8 mM MOPS pH 7.0
T1 sequence (Q92918 1-346): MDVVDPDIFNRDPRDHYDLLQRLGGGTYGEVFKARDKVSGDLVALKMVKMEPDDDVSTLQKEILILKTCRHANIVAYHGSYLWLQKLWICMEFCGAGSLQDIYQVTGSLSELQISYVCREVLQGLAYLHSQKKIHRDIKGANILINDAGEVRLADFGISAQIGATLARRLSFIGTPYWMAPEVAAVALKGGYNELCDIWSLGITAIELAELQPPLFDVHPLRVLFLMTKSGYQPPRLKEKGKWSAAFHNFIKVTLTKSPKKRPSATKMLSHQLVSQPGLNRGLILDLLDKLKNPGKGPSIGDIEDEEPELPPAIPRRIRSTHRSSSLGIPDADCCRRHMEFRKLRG
Description: A stock solution of 10 mM of test compound is prepared in DMSO. The compound plate was prepared by 3-fold and 9-point serial dilutions. […] The reaction is initiated by The addition of the Mg/ATP mix. After incubation for 40 minutes at RT, the reaction is stopped by the addition of phosphoric acid to a concentration of 0.5%.

[2] = target: Lck (h) (Homo sapiens, UniProt P06239); assay: Lck Human  Kinase Enzymatic Radiometric Assay; assay type: biochemical; settings: read-out: Lck IC50 nM Range*
Chain of Lck (h) (P06239 whole entry): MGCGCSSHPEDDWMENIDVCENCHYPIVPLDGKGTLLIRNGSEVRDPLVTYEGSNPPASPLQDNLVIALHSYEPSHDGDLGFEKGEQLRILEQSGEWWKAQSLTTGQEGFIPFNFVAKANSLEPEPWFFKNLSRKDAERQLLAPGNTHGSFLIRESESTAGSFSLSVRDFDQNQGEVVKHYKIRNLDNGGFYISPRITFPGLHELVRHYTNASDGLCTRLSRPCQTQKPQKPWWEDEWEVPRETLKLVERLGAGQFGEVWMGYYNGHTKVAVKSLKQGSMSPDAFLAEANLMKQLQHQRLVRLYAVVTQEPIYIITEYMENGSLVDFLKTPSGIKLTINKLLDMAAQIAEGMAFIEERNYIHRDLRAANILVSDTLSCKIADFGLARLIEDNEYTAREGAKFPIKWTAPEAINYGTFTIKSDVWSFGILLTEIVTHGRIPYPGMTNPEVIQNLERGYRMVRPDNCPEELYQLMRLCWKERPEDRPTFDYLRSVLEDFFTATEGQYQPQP
Outline: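 Substrate 33P-incorporation measured by scintillation counting after spotting on P30 filtermat and phosphoric acid washes. Human Lck reacted 40 min at RT in 50 mM Tris pH 7.5 with 10 mM MgAcetate, [gamma-33P]-ATP, 250 uM Cdc2 peptide, 0.1 mM EGTA and 0.1 mM Na3VO4.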

Structure (SMILES): Nc1nc(F)c(-c2ccc(N3CCCN4CCCC4C3)cc2)cc1-c1ccc2c(c1)CCNC2=O (stereo not shown) [I-281, 6-(2-amino-6-fluoro-5-(4-(hexahydro-1H-pyrrolo[1,2-a][1,4]diazepin-2(3H)-yl)phenyl)pyridin-3-yl)-3,4-dihydroisoquinolin-1(2H)-one]
- IC50 [1]: 0.1 to 10 nM
- IC50 [2]: > 1000 nM

Structure (SMILES): C[C@H]1CN(C)CCN1c1ccc(-c2cc(-c3ccc4c(c3)CCNC4=O)c(N)nc2F)cc1 [I-282, (S)-6-(2-amino-5-(4-(2,4-dimethylpiperazin-1-yl)phenyl)-6-fluoropyridin-3-yl)-3,4-dihydroisoquinolin-1(2H)-one]
- IC50 [1]: 0.1 to 10 nM
- IC50 [2]: > 1000 nM

Structure (SMILES): CN(C)C1CCN(c2ccc(-c3cc(-c4ccc5c(c4)CCNC5=O)c(N)nc3F)cc2)CC1 [I-283, 6-(2-amino-5-(4-(4-(dimethylamino)piperidin-1-yl)phenyl)-6-fluoropyridin-3-yl)-3,4-dihydroisoquinolin-1(2H)-one]
- IC50 [1]: 0.1 to 10 nM
- IC50 [2]: > 1000 nM

Structure (SMILES): C[C@@H]1CN(c2ccc(-c3cc(-c4ccc5c(c4)CCNC5=O)c(N)nc3F)cc2)C[C@H](C)N1C(=O)OC(C)(C)C [I-284, tert-butyl (2R,6S)-4-(4-(6-amino-2-fluoro-5-(1-oxo-1,2,3,4-tetrahydroisoquinolin-6-yl)pyridin-3-yl)phenyl)-2,6-dimethylpiperazine-1-carboxylate]
- IC50 [1]: 11 to 100 nM
- IC50 [2]: > 1000 nM

Structure (SMILES): CNCC1Cc2cc(-c3cc(-c4ccc(N5CCOCC5)cc4)c(F)nc3N)ccc2C(=O)N1 (stereo not shown) [I-285, 6-(2-amino-6-fluoro-5-(4-morpholinophenyl)pyridin-3-yl)-3-((methylamino)methyl)-3,4-dihydroisoquinolin-1(2H)-one]
- IC50 [1]: 11 to 100 nM
- IC50 [2]: > 1000 nM

Structure (SMILES): CNCC1Cc2cc(-c3cc(-c4ccc(N5CCN(C(C)C)CC5)cc4)c(F)nc3N)ccc2C(=O)N1 (stereo not shown) [I-286, 6-(2-amino-6-fluoro-5-(4-(4-isopropylpiperazin-1-yl)phenyl)pyridin-3-yl)-3-((methylamino)methyl)-3,4-dihydroisoquinolin-1(2H)-one]
- IC50 [1]: 0.1 to 10 nM
- IC50 [2]: > 1000 nM

Structure (SMILES): Nc1nc(F)c(-c2ccc3c(c2)CCNC3)cc1-c1cc2c(cc1F)C(=O)NCC2 [I-287, 2,2,2-trifluoroacetate]
- IC50 [1]: 0.1 to 10 nM
- IC50 [2]: > 1000 nM

Structure (SMILES): CC(C)N1CC(Oc2ccc(-c3cc(-c4ccc5c(c4)CCNC5=O)c(N)nc3F)cc2)C1 [I-288, 6-(2-amino-6-fluoro-5-(4-((1-isopropylazetidin-3-yl)oxy)phenyl)pyridin-3-yl)-3,4-dihydroisoquinolin-1(2H)-one]
- IC50 [1]: 0.1 to 10 nM
- IC50 [2]: > 1000 nM

Structure (SMILES): N#Cc1cc(-c2cc(-c3cc4c(cc3F)C(=O)NCC4)c(N)nc2F)ccc1OC1CCNCC1 [I-289, 5-(6-amino-2-fluoro-5-(7-fluoro-1-oxo-1,2,3,4-tetrahydroisoquinolin-6-yl)pyridin-3-yl)-2-(piperidin-4-yloxy)benzonitrile]
- IC50 [1]: 11 to 100 nM
- IC50 [2]: > 1000 nM

Structure (SMILES): CC(=O)N1CCC(Oc2ccc(-c3cc(-c4ccc5c(c4)CCNC5=O)c(N)nc3F)cc2F)CC1 [I-290, 6-(5-(4-((1-acetylpiperidin-4-yl)oxy)-3-fluorophenyl)-2-amino-6-fluoropyridin-3-yl)-3,4-dihydroisoquinolin-1(2H)-one]
- IC50 [1]: 0.1 to 10 nM
- IC50 [2]: 0.1 to 10 nM

Structure (SMILES): CC(C)N1CCC(Oc2ccc(-c3cc(-c4cc5c(cc4F)C(=O)NCC5)c(N)nc3F)cc2C#N)CC1 [I-292, 5-(6-amino-2-fluoro-5-(7-fluoro-1-oxo-1,2,3,4-tetrahydroisoquinolin-6-yl)pyridin-3-yl)-2-((1-isopropylpiperidin-4-yl)oxy)benzonitrile]
- IC50 [1]: 0.1 to 10 nM
- IC50 [2]: > 1000 nM

Structure (SMILES): N#Cc1cc(-c2cc(-c3cc4c(cc3F)C(=O)NCC4)c(N)nc2F)ccc1OC1CCN(CC(F)(F)F)CC1 [I-293, 5-(6-amino-2-fluoro-5-(7-fluoro-1-oxo-1,2,3,4-tetrahydroisoquinolin-6-yl)pyridin-3-yl)-2-((1-(2,2,2-trifluoroethyl)piperidin-4-yl)oxy)benzonitrile]
- IC50 [1]: 11 to 100 nM
- IC50 [2]: > 1000 nM

Structure (SMILES): COC1(c2ccc(-c3cc(-c4ccc5c(c4)CCNC5=O)c(N)nc3F)cc2)CCN(C(C)C)CC1 [I-294, 6-(2-amino-6-fluoro-5-(4-(1-isopropyl-4-methoxypiperidin-4-yl)phenyl)pyridin-3-yl)-3,4-dihydroisoquinolin-1(2H)-one]
- IC50 [1]: 0.1 to 10 nM
- IC50 [2]: > 1000 nM

Structure (SMILES): CC(C)N1CC=C(c2ccc(-c3cc(-c4cc5c(cc4F)C(=O)NCC5)c(N)nc3F)cc2)CC1 [I-295, 6-(2-amino-6-fluoro-5-(4-(1-isopropyl-1,2,3,6-tetrahydropyridin-4-yl)phenyl)pyridin-3-yl)-7-fluoro-3,4-dihydroisoquinolin-1(2H)-one]
- IC50 [1]: 0.1 to 10 nM
- IC50 [2]: > 1000 nM

Structure (SMILES): CCN1CC=C(c2ccc(-c3cc(-c4cc5c(cc4F)C(=O)NCC5)c(N)nc3F)cc2)CC1 [I-296, 6-(2-amino-5-(4-(1-ethyl-1,2,3,6-tetrahydropyridin-4-yl)phenyl)-6-fluoropyridin-3-yl)-7-fluoro-3,4-dihydroisoquinolin-1(2H)-one]
- IC50 [1]: 0.1 to 10 nM
- IC50 [2]: > 1000 nM

Structure (SMILES): Nc1nc(F)c(-c2ccc(C3=CCN(CC4CC4)CC3)cc2)cc1-c1cc2c(cc1F)C(=O)NCC2 [I-297, 6-(2-amino-5-(4-(1-(cyclopropylmethyl)-1,2,3,6-tetrahydropyridin-4-yl)phenyl)-6-fluoropyridin-3-yl)-7-fluoro-3,4-dihydroisoquinolin-1(2H)-one]
- IC50 [1]: 0.1 to 10 nM
- IC50 [2]: > 1000 nM

Structure (SMILES): CNCC1Cc2cc(-c3cc(-c4ccc(Cl)cc4)c(F)nc3N)ccc2C(=O)N1 (stereo not shown) [I-298, 6-(2-amino-5-(4-chlorophenyl)-6-fluoropyridin-3-yl)-3-((methylamino)methyl)-3,4-dihydroisoquinolin-1(2H)-one]
- IC50 [1]: 11 to 100 nM
- IC50 [2]: > 1000 nM

Structure (SMILES): CC(C)N1CCc2cc(-c3cc(-c4cc5c(cc4F)C(=O)NCC5)c(N)nc3F)ccc2C1 [I-299, 6-(2-amino-6-fluoro-5-(2-isopropyl-1,2,3,4-tetrahydroisoquinolin-6-yl)pyridin-3-yl)-7-fluoro-3,4-dihydroisoquinolin-1(2H)-one]
- IC50 [1]: 0.1 to 10 nM
- IC50 [2]: > 1000 nM

Structure (SMILES): COCCN1CCc2cc(-c3cc(-c4cc5c(cc4F)C(=O)NCC5)c(N)nc3F)ccc2C1 [I-300, 6-(2-amino-6-fluoro-5-(2-(2-methoxyethyl)-1,2,3,4-tetrahydroisoquinolin-6-yl)pyridin-3-yl)-7-fluoro-3,4-dihydroisoquinolin-1(2H)-one]
- IC50 [1]: 0.1 to 10 nM
- IC50 [2]: > 1000 nM

Structure (SMILES): CC(C)N1C[C@H]2C[C@@]2(c2ccc(-c3cc(-c4cc(F)c5c(c4)CCNC5=O)c(N)nc3F)cc2)C1 [I-301, 6-(2-amino-6-fluoro-5-(4-((1R,5S)-3-isopropyl-3-azabicyclo[3.1.0]hexan-1-yl)phenyl)pyridin-3-yl)-8-fluoro-3,4-dihydroisoquinolin-1(2H)-one]
- IC50 [1]: 0.1 to 10 nM
- IC50 [2]: > 1000 nM

Structure (SMILES): CC(C)N1CCC(c2ccc(-c3cc(-c4cc(F)c5c(c4)CCNC5=O)c(N)nc3F)cc2)CC1 [I-302, 6-(2-amino-6-fluoro-5-(4-(1-isopropylpiperidin-4-yl)phenyl)pyridin-3-yl)-8-fluoro-3,4-dihydroisoquinolin-1(2H)-one]
- IC50 [1]: 0.1 to 10 nM
- IC50 [2]: 101 to 1000 nM

Structure (SMILES): COCCN1CCC(Oc2ccc(-c3cc(-c4cc5c(cc4F)C(=O)NCC5)c(N)nc3F)cc2C#N)CC1 [I-303, 5-(6-amino-2-fluoro-5-(7-fluoro-1-oxo-1,2,3,4-tetrahydroisoquinolin-6-yl)pyridin-3-yl)-2-((1-(2-methoxyethyl)piperidin-4-yl)oxy)benzonitrile]
- IC50 [1]: 11 to 100 nM
- IC50 [2]: > 1000 nM

Structure (SMILES): COc1cc(OC2CCN(C(C)=O)CC2)ccc1-c1cc(-c2ccc3c(c2)CCNC3=O)c(N)nc1F [I-304, 6-(5-(4-((1-acetylpiperidin-4-yl)oxy)-2-methoxyphenyl)-2-amino-6-fluoropyridin-3-yl)-3,4-dihydroisoquinolin-1(2H)-one]
- IC50 [1]: 0.1 to 10 nM
- IC50 [2]: > 1000 nM

Structure (SMILES): COc1cc(-c2cc(-c3ccc4c(c3)CCNC4=O)c(N)nc2F)ccc1OC1CCN(C(C)=O)CC1 [I-305, 6-(5-(4-((1-acetylpiperidin-4-yl)oxy)-3-methoxyphenyl)-2-amino-6-fluoropyridin-3-yl)-3,4-dihydroisoquinolin-1(2H)-one]
- IC50 [1]: 0.1 to 10 nM
- IC50 [2]: > 1000 nM

Structure (SMILES): CC(=O)N1CCC(Oc2ccc(-c3cc(-c4ccc5c(c4)CCNC5=O)c(N)nc3F)c3c2OCO3)CC1 [I-306, 6-(5-(7-((1-acetylpiperidin-4-yl)oxy)benzo[d][1,3]dioxol-4-yl)-2-amino-6-fluoropyridin-3-yl)-3,4-dihydroisoquinolin-1(2H)-one]
- IC50 [1]: 0.1 to 10 nM
- IC50 [2]: > 1000 nM

Structure (SMILES): Nc1nc(F)c(-c2ccc(N3CCN(CC4CC4)CC3)cc2)cc1-c1cc(F)c2c(c1)CCNC2=O [I-307, 6-(2-amino-5-(4-(4-(cyclopropylmethyl)piperazin-1-yl)phenyl)-6-fluoropyridin-3-yl)-8-fluoro-3,4-dihydroisoquinolin-1(2H)-one]
- IC50 [1]: 0.1 to 10 nM
- IC50 [2]: > 1000 nM
